These results are taken from ChEMBL document CHEMBL4296182, “CO-ADD screening of NIH NCI Diversity Set V”.

In brackets after ≈: the same amount, converted by molar mass. Some results are limits rather than exact numbers.

For one test, the system named is HEK293. In words: cells. The format is functional. Conditions: Homo sapiens, ATCC CRL1573, HEK293; ASSAY_TEST Inhibition of Cell Viability; detection method Resazurin; Fluorescence (ex560/em590); MEDIA DMEM with 10% FBS; plate type 384well; TC; CORNING #3712; time 18 hr. In general terms: Resazurin is reduced to fluorescent resorufin, in cell work by metabolically active cells.

Another test has as its system Klebsiella pneumoniae. In words: microbe, parasite or virus in culture. Conditions: ATCC 700603, 18 h, ASSAY_TEST Inhibition of Bacterial Growth, detection method Absorption (OD600), MEDIA CAMHB, plate type 384well, NBS, CORNING #3640.
Another test has as its system Candida albicans. Put plainly: microbe, parasite or virus in culture. The conditions noted are these: ATCC 90028, ASSAY_TEST Inhibition of Fungal Growth, detection method Absorption (OD530), plate type 384well, NBS, CORNING #3640.
A further test deals with Escherichia coli. In words: microbe, parasite or virus in culture. The conditions noted are these: ATCC 25922, 18 h, ASSAY_TEST Inhibition of Bacterial Growth, detection method Absorption (OD600), MEDIA CAMHB, plate type 384well, NBS, CORNING #3640.
A further test concerns Staphylococcus aureus. Put plainly: microbe, parasite or virus in culture. Conditions: ATCC 43300, 18 h, ASSAY_TEST Inhibition of Bacterial Growth, detection method Absorption (OD600), MEDIA CAMHB, plate type 384well, NBS, CORNING #3640.
In the next test the test system is Pseudomonas aeruginosa. Put plainly: microbe, parasite or virus in culture. The conditions noted are these: ATCC 27853, 18 h, ASSAY_TEST Inhibition of Bacterial Growth, detection method Absorption (OD600), MEDIA CAMHB, plate type 384well, NBS, CORNING #3640.
Another test deals with Acinetobacter baumannii. Put plainly: microbe, parasite or virus in culture. The conditions noted are these: ATCC 19606, 18 h, ASSAY_TEST Inhibition of Bacterial Growth, detection method Absorption (OD600), MEDIA CAMHB, plate type 384well, NBS, CORNING #3640.

Description for Acinetobacter baumannii: Antibacterial activity against Acinetobacter baumannii ATCC 19606 (CO-ADD:GN_034); MIC in CAMBH media using NBS plates, by OD600
Description for Candida albicans: Antifungal activity against Candida albicans ATCC 90028 (CO-ADD:FG_001); MIC in YNB media using NBS plates, by OD630
Description for Cryptococcus neoformans: Antifungal activity against Cryptococcus neoformans H99 ATCC 208821 (CO-ADD:FG_002); MIC in YNB media using NBS plates, by Resazurin OD(600-570)
Description for Escherichia coli: Antibacterial activity against Escherichia coli ATCC 25922 (CO-ADD:GN_001); MIC in CAMBH media using NBS plates, by OD(600)
Description for Klebsiella pneumoniae: Antibacterial activity against Klebsiella pneumoniae MDR ATCC 70063 (CO-ADD:GN_003); MIC in CAMBH media using NBS plates, by OD(600)
Description for Pseudomonas aeruginosa: Antibacterial activity against Pseudomonas aeruginosa ATCC 27853 (CO-ADD:GN_042); MIC in CAMBH media using NBS plates, by OD(600)
Description for Staphylococcus aureus: Antibacterial activity against Staphylococcus aureus MRSA ATCC 43300 (CO-ADD:GP_020); MIC in CAMBH media, using NBS plates, by OD(600)

As usually defined, the CC50 is the concentration at which the toxic effect on the cells reaches its halfway point. Low readings indicate greater toxicity to the cells, high ones lower toxicity to the cells. Take `COC(=O)C1C(O)C(C)C(O)C(C)/C=C\C=C(/C)C(=O)Nc2c(C)c(OC(C)=O)c3c(c2O)C(=O)C(C)=C2OCOC(=C23)/C(C)=C/C(C)(O)C(O)C(C)C1O` (configuration not stated): the CC50 in the test on HEK293 is 9.11 µM. Besides, the MIC is more than 10 µM against Klebsiella pneumoniae; more than 10 µM against Candida albicans; more than 10 µM against Escherichia coli; 1.25 µM (≈ 0.962 µg/mL) against Staphylococcus aureus; more than 10 µM against Cryptococcus neoformans; more than 10 µM against Pseudomonas aeruginosa. The compound also returned an MIC against Acinetobacter baumannii of more than 10 µM.

As for `CC1=C(O)C(=O)C=C2C1=CC=C1[C@@]2(C)CC[C@@]2(C)[C@@H]3C[C@](C)(C(=O)O)CC[C@]3(C)CC[C@]12C` [CELASTROL], half-maximal cytotoxicity in the test with HEK293 (CC50) was put at 0.837 µM. For the same compound, the MIC against Klebsiella pneumoniae is more than 10 µM; in the test on Candida albicans, more than 10 µM; against Escherichia coli, more than 10 µM; in the test with Staphylococcus aureus it was 2.5 µM (≈ 1.13 µg/mL); with Cryptococcus neoformans, more than 10 µM; against Pseudomonas aeruginosa it was more than 10 µM. In the test on Acinetobacter baumannii, this compound showed an MIC of more than 10 µM.

In turn, `CO[C@@]12[C@H](COC(N)=O)C3=C(C(=O)C(C)=C(N)C3=O)N1C[C@@H]1N[C@@H]12` [MITOMYCIN] came in with a 50% cytotoxic concentration (CC50) in the test on HEK293 of 9.02 µM. Besides, the MIC with Klebsiella pneumoniae is more than 10 µM; with Candida albicans, more than 10 µM; against Escherichia coli, 1.25 µM (≈ 0.418 µg/mL); in the test with Staphylococcus aureus, 0.156 µM (≈ 0.0523 µg/mL); against Cryptococcus neoformans, more than 10 µM; in the test with Pseudomonas aeruginosa, 10 µM (≈ 3.34 µg/mL). In the test on Acinetobacter baumannii, the MIC was found to be 5 µM (≈ 1.67 µg/mL).

The compound `Nc1ccc(S(=O)(=O)Nc2cnc3ccccc3n2)cc1` [SULFAQUINOXALINE] registered a half-maximal cytotoxic concentration (CC50) in the test on HEK293 of more than 10 µM. In addition, the MIC in the test with Klebsiella pneumoniae, with Candida albicans, against Escherichia coli, in the test with Staphylococcus aureus, in the test on Cryptococcus neoformans and with Pseudomonas aeruginosa was more than 10 µM throughout. For the same compound, the MIC in the test on Acinetobacter baumannii is more than 10 µM.
